Measured values published in ChEMBL document CHEMBL2380215, “Development of cyclic peptomer inhibitors targeting the polo-box domain of polo-like kinase 1” (Bioorg Med Chem, 2013).
The source made the active and inactive calls. No cut-off for these calls is given here.

Experiments:
[1] = target: Serine/threonine-protein kinase PLK2 (Homo sapiens) (UniProt Q9NYY3); experiment: Inhibition of Plk2 polo-box domain (unknown origin) assessed as inhibition of 5-carboxyfluorescein-Ahx-GPMQTS-pT-PKNG binding after 10 mins by fluorescence polarization assay
Sequence of Serine/threonine-protein kinase PLK2 (Homo sapiens) (Q9NYY3 whole entry, looked up, the tested form may be a part): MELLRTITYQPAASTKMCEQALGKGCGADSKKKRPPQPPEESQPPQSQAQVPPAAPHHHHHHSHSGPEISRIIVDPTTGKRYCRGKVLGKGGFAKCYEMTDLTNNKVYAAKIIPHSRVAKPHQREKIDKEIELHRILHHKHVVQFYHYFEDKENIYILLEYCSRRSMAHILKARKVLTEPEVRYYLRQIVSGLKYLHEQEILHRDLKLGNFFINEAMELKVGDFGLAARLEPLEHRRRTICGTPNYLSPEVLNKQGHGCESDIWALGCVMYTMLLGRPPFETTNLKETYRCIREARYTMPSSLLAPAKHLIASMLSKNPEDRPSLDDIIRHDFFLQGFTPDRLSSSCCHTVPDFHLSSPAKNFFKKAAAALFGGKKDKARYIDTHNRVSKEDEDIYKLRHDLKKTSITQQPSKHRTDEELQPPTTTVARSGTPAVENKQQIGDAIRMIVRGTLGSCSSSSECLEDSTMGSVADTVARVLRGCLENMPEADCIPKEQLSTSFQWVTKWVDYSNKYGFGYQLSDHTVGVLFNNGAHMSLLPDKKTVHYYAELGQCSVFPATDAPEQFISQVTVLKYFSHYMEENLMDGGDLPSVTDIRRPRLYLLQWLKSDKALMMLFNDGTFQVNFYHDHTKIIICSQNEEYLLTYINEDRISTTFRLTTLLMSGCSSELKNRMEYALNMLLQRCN

[2] = target: Serine/threonine-protein kinase PLK3 (Homo sapiens) (UniProt Q9H4B4); experiment: Inhibition of Plk3 polo-box domain (unknown origin) assessed as inhibition of 5-carboxyfluorescein-Ahx-GPLATS-pT-PKNG binding after 10 mins by fluorescence polarization assay
Sequence of Serine/threonine-protein kinase PLK3 (Homo sapiens) (Q9H4B4 whole entry, looked up, the tested form may be a part): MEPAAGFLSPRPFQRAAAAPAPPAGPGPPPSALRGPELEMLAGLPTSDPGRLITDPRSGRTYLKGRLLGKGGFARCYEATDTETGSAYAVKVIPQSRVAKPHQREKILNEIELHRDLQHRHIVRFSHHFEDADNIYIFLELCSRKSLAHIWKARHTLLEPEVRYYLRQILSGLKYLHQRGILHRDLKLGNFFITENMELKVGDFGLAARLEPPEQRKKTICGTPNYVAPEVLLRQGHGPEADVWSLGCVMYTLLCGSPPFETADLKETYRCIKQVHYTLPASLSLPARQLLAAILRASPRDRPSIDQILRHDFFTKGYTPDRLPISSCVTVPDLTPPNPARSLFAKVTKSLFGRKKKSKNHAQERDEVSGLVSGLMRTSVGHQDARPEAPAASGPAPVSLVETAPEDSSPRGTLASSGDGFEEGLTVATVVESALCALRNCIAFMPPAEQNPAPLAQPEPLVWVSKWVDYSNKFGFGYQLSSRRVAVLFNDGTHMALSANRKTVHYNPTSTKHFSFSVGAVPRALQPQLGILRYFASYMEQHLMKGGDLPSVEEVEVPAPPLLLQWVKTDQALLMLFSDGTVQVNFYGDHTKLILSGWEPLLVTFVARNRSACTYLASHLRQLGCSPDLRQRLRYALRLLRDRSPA

[3] = target: Serine/threonine-protein kinase PLK1 (Homo sapiens) (UniProt P53350); experiment: Inhibition of HA-EGFP tagged Plk1 polo-box domain (unknown origin) expressed in 293A cells assessed as inhibition of biotin-p-T78 binding up to 150 uM after 1 hr by ELISA; type: cell-based
Sequence of Serine/threonine-protein kinase PLK1 (Homo sapiens) (P53350 whole entry, the tested form may be a part): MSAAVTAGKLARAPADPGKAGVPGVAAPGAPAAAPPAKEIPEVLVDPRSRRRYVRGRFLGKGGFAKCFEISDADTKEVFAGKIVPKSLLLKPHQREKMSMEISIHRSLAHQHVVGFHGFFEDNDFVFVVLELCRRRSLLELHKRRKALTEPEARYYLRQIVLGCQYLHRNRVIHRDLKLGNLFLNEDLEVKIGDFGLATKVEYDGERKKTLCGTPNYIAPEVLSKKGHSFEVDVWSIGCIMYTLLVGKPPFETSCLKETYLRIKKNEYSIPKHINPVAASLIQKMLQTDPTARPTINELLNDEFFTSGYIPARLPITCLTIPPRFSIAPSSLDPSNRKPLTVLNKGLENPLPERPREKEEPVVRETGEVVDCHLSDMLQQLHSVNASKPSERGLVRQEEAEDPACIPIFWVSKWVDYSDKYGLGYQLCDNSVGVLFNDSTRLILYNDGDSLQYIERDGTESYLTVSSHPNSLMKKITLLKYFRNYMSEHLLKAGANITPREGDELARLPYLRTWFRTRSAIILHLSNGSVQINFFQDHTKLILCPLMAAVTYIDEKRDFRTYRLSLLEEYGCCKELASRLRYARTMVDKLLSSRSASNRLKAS

| SMILES | inhibition [1] | inhibition [2] | inhibition [3] |
| --- | --- | --- | --- |
| CC(=O)n1cc(CCNC(=O)CCCCCN2CC(=O)N[C@@H](CC(C)C)C(=O)N[C@@H](Cc3cncn3CCCCCCCCc3ccccc3)C(=O)N[C@@H](CO)C(=O)N[C@@H]([C@@H](C)OP(=O)(O)O)C(=O)N[C@@H](C(N)=O)CSCC2=O)c2ccccc21 | inactive | inactive | – |
| CC(=O)n1cc(CCNC(=O)CCCCCN2CC(=O)N[C@@H](CC(C)C)C(=O)N[C@@H](Cc3c[nH]cn3)C(=O)N[C@@H](CO)C(=O)N[C@@H]([C@@H](C)OP(=O)(O)O)C(=O)N[C@@H](C(N)=O)CSCC2=O)c2ccccc21 | inactive | inactive | – |
| CC(=O)n1cc(CCNC(=O)CCCCN2CC(=O)N[C@@H](CC(C)C)C(=O)N[C@@H](Cc3c[nH]cn3)C(=O)N[C@@H](CO)C(=O)N[C@@H]([C@@H](C)OP(=O)(O)O)C(=O)N[C@@H](C(N)=O)CSCC2=O)c2ccccc21 | – | – | Active |
| CC(=O)n1cc(CCNC(=O)CCN2CC(=O)N[C@@H](CC(C)C)C(=O)N[C@@H](Cc3c[nH]cn3)C(=O)N[C@@H](CO)C(=O)N[C@@H]([C@@H](C)OP(=O)(O)O)C(=O)N[C@@H](C(N)=O)CSCC2=O)c2ccccc21 | – | – | Active |
